From patent publication US20260176260A1, “DUAL RAF AND TUBULIN INHIBITORS AND METHODS OF USE THEREOF” (Deciphera Pharmaceuticals, LLC, priority 2023, published 2026)
Like-named read-outs stand apart in the source and are kept apart here.

Columns and labels:
C-Raf kinase = target: T1, C-Raf kinase (Homo sapiens, UniProt P04049, Y340D/Y341D); experiment: Biochemical assay for C-Raf (coupled pyruvate kinase/lactate dehydrogenase)
T1 construct: C-Raf residues 306-end; Y340D, Y341D with N-; purchased Sigma
T1 sequence (P04049 307-648 Y340D/Y341D): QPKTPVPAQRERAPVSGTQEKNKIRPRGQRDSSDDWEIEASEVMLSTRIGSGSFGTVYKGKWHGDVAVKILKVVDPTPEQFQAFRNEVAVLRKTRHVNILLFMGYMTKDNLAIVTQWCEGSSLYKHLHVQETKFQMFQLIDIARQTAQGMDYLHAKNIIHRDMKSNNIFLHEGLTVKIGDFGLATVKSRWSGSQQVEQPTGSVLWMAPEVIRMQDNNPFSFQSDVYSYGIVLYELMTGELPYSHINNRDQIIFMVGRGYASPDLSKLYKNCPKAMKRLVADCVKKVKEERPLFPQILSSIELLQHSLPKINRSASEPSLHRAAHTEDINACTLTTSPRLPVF

HPAF-II cells = experiment: HPAF-II cell proliferation assay (resazurin); assay type: cell-based; details: Homo sapiens
Method: (§1) HPAF-II cells (catalog #CRL-1997) are obtained from the American Type Culture Collect (ATCC, Manassas, VA). Briefly, cells are grown in Minimum Essential Media supplemented with 10% characterized fetal bovine serum (Invitrogen, Carlsbad, CA) and 1% Penicillin/Streptomycin/L-Glutamine at 37° C., 5% CO2, and 95% humidity. Cells are expanded until reaching 70-95% confluency at which point they are sub-cultured or harvested for assay use. A serial dilution of test compound is dispensed into a 384-well black clear bottom plate in triplicate. 750 cells are added per well in 50 μL complete growth medium in the 384-well plate. Plates are incubated for 115 to 120 h at 37° C., 5% CO2, and 95% humidity. At the end of the incubation, 40 μL of a […] solution of resazurin (Sigma, St. Louis, MO) in PBS is added to each well of the plate and plates are incubated for an additional 18 to 24 h at 37° C., 5% CO2, and 95% humidity. Plates are read on a Synergy2 or equivalent reader (Biotek, Winooski, VT) using an excitation of 540 nm and an emission of 600 nm. Data is analyzed using Prism software (Graphpad, San Diego, CA) to calculate IC50 values.

Pa16c cells = experiment: Pa16c cell proliferation assay (resazurin); assay type: cell-based; details: Table 2, inhibition of cell proliferation
Method: as §1, with “Pa16c” for “HPAF-II”, “cells” for “cells (catalog #CRL-1997)”, “Dr. Channing Der, University of North Carolina at Chapel Hill.” for “the American Type Culture Collect (ATCC, Manassas, VA).”, “Dulbecco's Modified Eagle Medium” for “Minimum Essential Media”, “67” for “115”, “72” for “120”

MiaPaca-2 cells = experiment: MiaPaca-2 cell proliferation assay (resazurin); assay type: cell-based; details: Homo sapiens, MIA PaCa-2; Table 2, inhibition of cell proliferation; read-out: MiaPaca-2
Method: MiaPaca-2 cells (catalog #CRL-1420) are obtained from the American Type Culture Collect (ATTC, Manassas, VA). Briefly, cells were grown in DMVEM supplemented with […] fetal bovine serum (Invitrogen, Carlsbad, CA), 2.5% New Zealand sourced horse serum and 1% Penicillin/Streptomycin/L-Glutamine at 37° C., […], and […]. Cells are expanded until reaching […] at which point they are sub-cultured or harvested for assay use. For assays completed in 96-well plates, a serial dilution of test compound is dispensed into a 96-well black clear bottom plate in triplicate. Three thousand cells are added per well in 200 μL complete growth medium in the 96-well plate. Plates are incubated for 67 to 72 h at 37° C., 5% CO2, and 95% humidity. At the end of the incubation, 40 μL of a […] solution of resazurin (Sigma, St. Louis, MO) in PBS is added to each well of the plate and plates are incubated for an additional 5 to 6 h at 37° C., 5% CO2, and 95% humidity. For 384-well assays, a threefold, 8-point serial dilution of compound was spotted column wise into a 384 well black, clear bottom, tissue culture treated plate using the Beckman Coulter Echo 650. Likewise, a threefold, 8-point serial dilution of cobimetinib was spotted row wise into the 384 well black, clear bottom plate containing compound. DMSO concentration was constant across all wells at 0.4%. Seven hundred fifty cells are added per well in 50 μL complete growth medium in each 384-well plate. Plates are incubated for 67 to 72 h at 37° C., 5% CO2, and 95% humidity. At the end of the incubation, 10 μL of a 440 μM solution of resazurin (Sigma, St. Louis, MO) in PBS is added to each well of the plate and plates are incubated for an additional 4 to 6 h at 37° C., 5% CO2, and 95% humidity. Plates are read on a Synergy2 or equivalent reader (Biotek, Winooski VT) using an excitation of 540 nm and an emission of 600 nm. Data is analyzed using Prism software (Graphpad, San Diego, CA) to calculate IC50 values.

HCT-116 cells = experiment: HCT-116 cell proliferation assay (resazurin); assay type: cell-based; details: Homo sapiens
Method: HCT-116 cells (catalog #CCL-247) are obtained from the American Type Culture Collect (ATCC, Manassas, VA). Briefly, cells are grown in McCoy's 5A supplemented with 10% characterized fetal bovine serum (Invitrogen, Carlsbad, CA) and 1% Penicillin/Streptomycin/L-Glutamine at 37° C., 5% CO2, and 95% humidity. Cells are expanded until reaching 70-95% confluency at which point they are sub-cultured or harvested for assay use. A serial dilution of test compound is dispensed into a 384-well black clear bottom plate in triplicate. 375 cells are added per well in 50 μL complete growth medium in the 384-well plate. Plates are incubated for 67 to 72 h at 37° C., 5% CO2, and 95% humidity. At the end of the incubation, 40 μL of a […] solution of resazurin (Sigma, St. Louis, MO) in PBS is added to each well of the plate and plates are incubated for an additional 4 to 5 h at 37° C., 5% CO2, and 95% humidity. Plates are read on a Synergy2 or equivalent reader (Biotek, Winooski, VT) using an excitation of 540 nm and an emission of 600 nm. Data is analyzed using Prism software (Graphpad, San Diego, CA) to calculate IC50 values.

B-Raf kinase = target: T2, B-Raf kinase (Homo sapiens, UniProt P15056); experiment: Biochemical assay for B-Raf (coupled pyruvate kinase/lactate dehydrogenase)
T2 construct: purchased Sigma
T2 sequence (P15056 416-766): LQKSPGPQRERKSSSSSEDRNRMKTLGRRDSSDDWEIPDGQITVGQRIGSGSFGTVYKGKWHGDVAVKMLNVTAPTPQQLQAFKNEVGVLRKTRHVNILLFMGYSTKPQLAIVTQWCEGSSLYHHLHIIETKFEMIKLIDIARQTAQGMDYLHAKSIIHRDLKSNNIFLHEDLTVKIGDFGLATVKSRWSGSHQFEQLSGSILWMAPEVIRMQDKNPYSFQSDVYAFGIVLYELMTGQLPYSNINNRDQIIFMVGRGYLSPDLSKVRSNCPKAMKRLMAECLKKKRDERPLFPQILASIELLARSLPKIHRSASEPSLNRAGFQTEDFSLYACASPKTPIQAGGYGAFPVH

[1] = Table 1, inhibition of biochemical activity, read-out: CRAF
[2] = Table 2, inhibition of cell proliferation, read-out: HPAF-II
[3] = Table 2, inhibition of cell proliferation, read-out: HCT-116
[4] = Table 1, inhibition of biochemical activity, read-out: BRAF

SMILES | IC50 (C-Raf kinase; [1]) | IC50 (HPAF-II cells; [2]) | IC50 (Pa16c cells) | IC50 (MiaPaca-2 cells) | IC50 (HCT-116 cells; [3]) | IC50 (B-Raf kinase; [4]) | IC50 (C-Raf kinase; Table 4, read-out: CRAF IC50) | IC50 (HPAF-II cells; HPAF-II, Table 4, read-out: HPAF-II IC50) | IC50 (HCT-116 cells; HCT-116, Table 4, read-out: HCT-116 IC50) | IC50 (B-Raf kinase; Table 4, read-out: BRAF IC50)
CNC(=O)c1cc(-c2cc(-c3cc(NC(=O)c4cnc(C(F)(F)F)nc4)ccc3C)cc(N[C@H](C)CO)n2)ccn1 [Example 45] | 100 to 500 nM | 1000 to 10000 nM | 1000 to 10000 nM | 1000 to 10000 nM | 1000 to 10000 nM | 100 to 500 nM | – | – | – | –
CNC(=O)c1cc(-c2cc(-c3cc(NC(=O)c4cc(C(F)(F)F)cnn4)ccc3C)cc(N[C@H](C)CO)n2)ccn1 [Example 29] | < 100 nM | 100 to 500 nM | 100 to 500 nM | 100 to 500 nM | < 100 nM | < 100 nM | – | – | – | –
CNC(=O)c1cc(-c2cc(-c3cc(NC(=O)c4cnc(C(F)(F)F)nc4)ccc3C)ccn2)ccn1 [Example 41] | 1000 to 10000 nM | 100 to 500 nM | 100 to 500 nM | 500 to 1000 nM | 100 to 500 nM | 1000 to 10000 nM | – | – | – | –
CNC(=O)c1cc(-c2cc(-c3cc(NC(=O)c4ccc(C(F)(F)F)nc4)ccc3C)cc(N[C@H](C)CO)n2)ccn1 [Example 44] | 100 to 500 nM | 1000 to 10000 nM | 1000 to 10000 nM | 1000 to 10000 nM | 1000 to 10000 nM | 100 to 500 nM | – | – | – | –
CNC(=O)c1cc(-c2cc(-c3cc(NC(=O)c4cccc(C(C)(C)C#N)c4)ccc3C)cc(OCCO)n2)ccn1 [reference compound] | – | – | – | – | – | – | < 100 nM | 500 to 1000 nM | 100 to 500 nM | < 100 nM
CNC(=O)c1cc(-c2cc(-c3cc(NC(=O)c4cc(C(N)=O)cnn4)ccc3C)cc(OCCO)n2)ccn1 [Example 52, N^3-(3-(6-(2-hydroxyethoxy)-2′-(methylcarbamoyl)-[2,4′-bipyridin]-4-yl)-4-methylphenyl)pyridazine-3,5-dicarboxamide] | < 100 nM | 1000 to 10000 nM | – | 1000 to 10000 nM | 1000 to 10000 nM | 100 to 500 nM | – | – | – | –
CNC(=O)c1cc(-c2cncc(-c3cc(NC(=O)c4cc(C(C)(F)F)cnn4)ccc3C)c2)ccn1 [Example 30] | < 100 nM | 1000 to 10000 nM | 1000 to 10000 nM | 1000 to 10000 nM | 500 to 1000 nM | < 100 nM | – | – | – | –
CNC(=O)c1cc(-c2cc(-c3cc(NC(=O)c4cc(C(F)(F)F)cnn4)ccc3C)nc(N[C@H](C)CO)n2)ccn1 [Example 25] | < 100 nM | 100 to 500 nM | 1000 to 10000 nM | 100 to 500 nM | 100 to 500 nM | < 100 nM | – | – | – | –
Cc1ccc(NC(=O)c2ccc(C(F)(F)F)nc2)cc1-c1cncc(-c2ccnc(C(N)=O)c2)c1 [Example 11] | 100 to 500 nM | – | – | 1000 to 10000 nM | – | 500 to 1000 nM | – | – | – | –
CNC(=O)c1cc(-c2cc(-c3cc(NC(=O)c4cc(C(F)(F)F)cnn4)ccc3C)cc(OCCO)n2)ccn1 [Example 35] | < 100 nM | 100 to 500 nM | 100 to 500 nM | 100 to 500 nM | 100 to 500 nM | < 100 nM | – | – | – | –
CNC(=O)c1cc(-c2cc(-c3cc(NC(=O)c4cncc(C(C)(F)F)c4)ccc3C)cc(C)n2)ccn1 [Example 15] | < 100 nM | – | – | 1000 to 10000 nM | – | 100 to 500 nM | – | – | – | –
CNC(=O)c1cc(-c2cc(-c3cc(NC(=O)c4cc(Cl)cnn4)ccc3C)ccn2)ccn1 [Example 36] | < 100 nM | 1000 to 10000 nM | 1000 to 10000 nM | 500 to 1000 nM | 500 to 1000 nM | 100 to 500 nM | – | – | – | –
CNC(=O)c1cc(-c2cc(NCCO)nc(-c3cc(NC(=O)c4cc(C(F)(F)F)cnn4)ccc3C)n2)ccn1 [Example 33] | < 100 nM | 1000 to 10000 nM | 1000 to 10000 nM | 1000 to 10000 nM | 1000 to 10000 nM | 100 to 500 nM | – | – | – | –
CNC(=O)c1cc(-c2cc(-c3cc(NC(=O)c4cc(C5CC5)cnn4)ccc3C)cc(N[C@H](C)CO)n2)ccn1 [Example 32] | < 100 nM | 100 to 500 nM | 100 to 500 nM | 100 to 500 nM | 100 to 500 nM | < 100 nM | – | – | – | –
CNC(=O)c1cc(-c2cc(-c3cc(NC(=O)c4cncc(C(C)(F)F)c4)ccc3C)ccn2)ccn1 [Example 14] | < 100 nM | 1000 to 10000 nM | – | 1000 to 10000 nM | 500 to 1000 nM | < 100 nM | – | – | – | –
CNC(=O)c1cc(-c2cc(-c3cc(NC(=N)c4cc(C(F)(F)F)cnn4)ccc3C)ccn2)ccn1 [Example 20] | 100 to 500 nM | 1000 to 10000 nM | 1000 to 10000 nM | 1000 to 10000 nM | 1000 to 10000 nM | 500 to 1000 nM | – | – | – | –
CNC(=O)c1cc(-c2cc(-c3cc(NC(=O)c4cc(C#N)cnn4)ccc3C)cc(N[C@H](C)CO)n2)ccn1 [Example 50] | < 100 nM | 500 to 1000 nM | – | 100 to 500 nM | 100 to 500 nM | < 100 nM | – | – | – | –
CNC(=O)c1cc(-c2cc(N)cc(-c3cc(NC(=O)c4cc(C(F)(F)F)cnn4)ccc3C)c2)ccn1 [Example 51] | < 100 nM | 1000 to 10000 nM | – | 500 to 1000 nM | 500 to 1000 nM | 100 to 500 nM | – | – | – | –
CNC(=O)c1cc(-c2cncc(-c3cc(NC(=O)c4ccc(C(F)(F)F)nc4)ccc3C)c2)ncn1 [Example 10] | 100 to 500 nM | – | – | 1000 to 10000 nM | – | 100 to 500 nM | – | – | – | –
Cc1ccc(NC(=O)c2ccc(C(F)(F)F)nc2)cc1-c1ccnc(-c2ccnc(C(=O)NC3CC3)c2)c1 [Example 5] | 100 to 500 nM | – | – | 500 to 1000 nM | 100 to 500 nM | 1000 to 10000 nM | – | – | – | –
CNC(=O)c1cc(-c2cc(-c3cc(NC(=O)c4cc(C#N)cnn4)ccc3C)cc(NCCO)n2)ccn1 [Example 53] | < 100 nM | 100 to 500 nM | – | 100 to 500 nM | 100 to 500 nM | < 100 nM | – | – | – | –
